# Measured values reported in paper PMC9532703, “A novel small molecule RK-019 inhibits FGFR2-amplification gastric cancer cell proliferation and induces apoptosis in vitro and in vivo” (Frontiers in Pharmacology, 2022).
# Several values for one entry are separate records, joined by “and”; a condition that tells them apart may be missing. Equal entries are not always repeated.
# Key:
# FGFR1 = target: T1, FGFR1 (Homo sapiens, UniProt P11362); experiment: Kinase inhibition IC50 assay (Eurofins); format: biochemical
# T1 construct: purchased Eurofins Discovery Services (Dundee, United Kingdom)
# T1 sequence (P11362 22-822): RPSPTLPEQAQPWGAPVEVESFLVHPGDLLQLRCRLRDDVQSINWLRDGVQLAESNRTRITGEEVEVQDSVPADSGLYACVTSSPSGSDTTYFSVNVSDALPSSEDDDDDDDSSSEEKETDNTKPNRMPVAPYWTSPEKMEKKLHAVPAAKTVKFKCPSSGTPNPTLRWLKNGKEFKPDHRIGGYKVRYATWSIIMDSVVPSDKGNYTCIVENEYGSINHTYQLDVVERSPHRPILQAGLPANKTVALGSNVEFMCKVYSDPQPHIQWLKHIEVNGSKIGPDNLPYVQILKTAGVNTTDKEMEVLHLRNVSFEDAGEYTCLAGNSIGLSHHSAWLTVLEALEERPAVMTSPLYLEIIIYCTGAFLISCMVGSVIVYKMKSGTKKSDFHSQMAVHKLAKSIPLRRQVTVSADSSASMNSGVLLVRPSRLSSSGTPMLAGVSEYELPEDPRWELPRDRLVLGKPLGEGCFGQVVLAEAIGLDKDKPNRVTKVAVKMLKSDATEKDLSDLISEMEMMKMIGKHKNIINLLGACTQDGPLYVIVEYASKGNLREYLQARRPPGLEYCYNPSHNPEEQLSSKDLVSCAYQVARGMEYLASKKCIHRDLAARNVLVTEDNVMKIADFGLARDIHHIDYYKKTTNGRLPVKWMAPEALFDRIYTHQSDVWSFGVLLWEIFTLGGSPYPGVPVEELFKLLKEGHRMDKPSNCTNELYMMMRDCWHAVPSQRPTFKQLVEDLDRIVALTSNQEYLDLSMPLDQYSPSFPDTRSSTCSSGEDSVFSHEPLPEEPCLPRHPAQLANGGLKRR
# Procedure: (§1) Median-inhibitory concentration (IC50) and inhibition ratio of kinases by RK-019 was assessed by Eurofins Discovery Services (Dundee, United Kingdom) using the ATP-site competition binding assay in vitro. Firstly, gradient concentration of RK-019 against FGFRs, including FGFR1, FGFR2, FGFR3, and FGFR4, were tested. IC50 value was calculate by the GraphPad Prism software (v8.4.3, GraphPad Software, California, United States). Then, to measure the selectivity prolife of RK-019, a panel of 422 recombinant human kinases was screened at a concentration of 1 µM RK-019. Kinase MAP was drawn by webtools from Cell Signaling Technology, Inc. (www.cellsignal.com).
# (§2) All data were analyzed by the GraphPad Prism 8.4.3 (GraphPad Software, California, United States), and was shown as mean value ±SD or SEM, details will be illustrated in the figure legends. Dose-effect curve analysis (IC50 calculation) was performed by the Graphpad Prism software. First, concentration value was converted to log value, followed by non-linear regression analyze which is log(inhibitor) vs. normalized response—Variable slope, was performed to calculate the IC50 values. The statistically significant p values were calculated by student’s t-test or two-way ANOVA and were shown in graphics which were labeled as follows: *p < 0.05; **p < 0.01; ***p < 0.001.
# FGFR4 = target: T2, FGFR4 (Homo sapiens, UniProt P22455); experiment: Kinase inhibition IC50 assay (Eurofins); format: biochemical
# T2 construct: purchased Eurofins Discovery Services (Dundee, United Kingdom)
# T2 sequence (P22455 22-802): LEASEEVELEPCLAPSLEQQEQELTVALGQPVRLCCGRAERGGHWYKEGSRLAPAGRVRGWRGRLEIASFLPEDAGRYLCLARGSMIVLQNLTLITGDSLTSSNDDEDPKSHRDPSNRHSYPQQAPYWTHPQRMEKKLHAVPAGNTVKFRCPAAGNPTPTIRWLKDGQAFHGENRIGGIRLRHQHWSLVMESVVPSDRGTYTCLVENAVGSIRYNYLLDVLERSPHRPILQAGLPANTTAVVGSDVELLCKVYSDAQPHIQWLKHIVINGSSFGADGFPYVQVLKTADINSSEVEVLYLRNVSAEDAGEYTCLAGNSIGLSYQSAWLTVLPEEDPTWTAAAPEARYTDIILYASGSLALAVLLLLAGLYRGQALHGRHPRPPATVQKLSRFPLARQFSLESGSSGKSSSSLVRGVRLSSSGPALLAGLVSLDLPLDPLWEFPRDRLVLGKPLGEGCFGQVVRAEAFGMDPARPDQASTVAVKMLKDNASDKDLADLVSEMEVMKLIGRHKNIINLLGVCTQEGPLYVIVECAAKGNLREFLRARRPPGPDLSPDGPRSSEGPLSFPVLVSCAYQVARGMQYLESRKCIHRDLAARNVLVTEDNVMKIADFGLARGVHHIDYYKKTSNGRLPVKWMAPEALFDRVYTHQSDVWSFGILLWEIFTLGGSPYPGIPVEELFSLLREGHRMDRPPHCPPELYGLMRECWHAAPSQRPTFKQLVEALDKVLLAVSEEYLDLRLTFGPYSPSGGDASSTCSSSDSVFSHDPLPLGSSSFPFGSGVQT
# Procedure: as §1, §2
# FGFR3 = target: T3, FGFR3 (Homo sapiens, UniProt P22607); experiment: Kinase inhibition IC50 assay (Eurofins); format: biochemical
# T3 construct: purchased Eurofins Discovery Services (Dundee, United Kingdom)
# T3 sequence (P22607 23-806): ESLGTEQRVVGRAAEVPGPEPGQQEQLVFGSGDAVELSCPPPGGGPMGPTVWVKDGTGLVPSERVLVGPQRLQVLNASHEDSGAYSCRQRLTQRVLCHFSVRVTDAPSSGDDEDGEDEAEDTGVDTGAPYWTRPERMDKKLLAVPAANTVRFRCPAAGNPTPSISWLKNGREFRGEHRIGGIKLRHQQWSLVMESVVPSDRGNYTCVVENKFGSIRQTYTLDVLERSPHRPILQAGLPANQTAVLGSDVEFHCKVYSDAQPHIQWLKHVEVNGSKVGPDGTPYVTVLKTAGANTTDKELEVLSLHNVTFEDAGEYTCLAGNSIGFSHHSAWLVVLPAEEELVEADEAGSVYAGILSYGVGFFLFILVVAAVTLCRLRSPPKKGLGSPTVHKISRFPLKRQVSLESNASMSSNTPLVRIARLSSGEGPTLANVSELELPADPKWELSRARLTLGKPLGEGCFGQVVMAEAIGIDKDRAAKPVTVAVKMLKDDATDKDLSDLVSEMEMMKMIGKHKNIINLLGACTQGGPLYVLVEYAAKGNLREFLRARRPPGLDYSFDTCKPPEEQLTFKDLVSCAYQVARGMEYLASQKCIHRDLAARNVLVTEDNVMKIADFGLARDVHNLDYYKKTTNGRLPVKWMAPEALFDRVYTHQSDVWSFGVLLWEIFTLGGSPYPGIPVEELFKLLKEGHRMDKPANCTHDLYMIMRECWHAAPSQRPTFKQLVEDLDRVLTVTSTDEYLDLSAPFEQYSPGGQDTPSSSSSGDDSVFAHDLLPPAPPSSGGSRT
# Procedure: as §1, §2
# FGFR2 = target: T4, FGFR2 (Homo sapiens, UniProt P21802); experiment: Kinase inhibition IC50 assay (Eurofins); format: biochemical
# T4 construct: purchased Eurofins Discovery Services (Dundee, United Kingdom)
# T4 sequence (P21802 22-821): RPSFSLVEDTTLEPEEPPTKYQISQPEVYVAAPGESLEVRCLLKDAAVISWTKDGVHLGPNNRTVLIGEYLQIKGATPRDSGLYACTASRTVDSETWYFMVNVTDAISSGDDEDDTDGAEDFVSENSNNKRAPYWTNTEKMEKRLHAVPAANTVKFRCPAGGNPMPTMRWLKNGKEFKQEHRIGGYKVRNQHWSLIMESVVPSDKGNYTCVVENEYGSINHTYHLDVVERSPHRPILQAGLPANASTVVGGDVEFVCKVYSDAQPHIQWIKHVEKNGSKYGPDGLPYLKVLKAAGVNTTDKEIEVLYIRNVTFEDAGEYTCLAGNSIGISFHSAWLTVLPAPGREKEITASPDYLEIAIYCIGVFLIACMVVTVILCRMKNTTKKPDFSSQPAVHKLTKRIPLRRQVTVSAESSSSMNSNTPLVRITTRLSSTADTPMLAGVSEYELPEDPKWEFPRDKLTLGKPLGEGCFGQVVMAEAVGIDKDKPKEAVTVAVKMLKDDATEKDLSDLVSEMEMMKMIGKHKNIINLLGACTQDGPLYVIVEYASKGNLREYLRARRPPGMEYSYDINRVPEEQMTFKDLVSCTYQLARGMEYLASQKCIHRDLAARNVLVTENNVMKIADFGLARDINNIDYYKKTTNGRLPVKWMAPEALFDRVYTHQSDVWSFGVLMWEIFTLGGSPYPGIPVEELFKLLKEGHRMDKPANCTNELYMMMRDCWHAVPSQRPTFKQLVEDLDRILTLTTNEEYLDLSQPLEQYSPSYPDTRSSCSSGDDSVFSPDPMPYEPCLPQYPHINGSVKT
# Procedure: as §1, §2
# KATO III cells [1] = experiment: Cell viability assay (MTT); format: cell-based; settings: Homo sapiens, mean ± SD
# Procedure: (§3) For suspension and mixed suspension adherent cells, the cells were seeded in 96-well plate with different cell density, 0.5×10^4 per well for 96 h treatment, 1×10^4 per well for 72 h treatment, 2×10^4 per well for 48 h treatment, and 5×10^4 per well for 24 h treatment. Different doses of RK-019 were treated as soon as the cell seeded in 96-well plates. For adherent cells, the cells were seeded in a 96-well plate with 3×10^3 per well and cultured overnight followed by administrated different doses of RK-019. After indicated time treatment, MTT solution at a final concentration of 0.5 mg/ml was added and incubated 2–4 h at 37°C. Formazan formed by the living cells was dissolved with DMSO and the absorbance was measured using a microplate spectrophotometer (MultiskanFC, ThermoFisher, Waltham, MA, United States) at 570 nm. IC50 value of RK-019 was calculated by the Graphpad Prism software.
# as §2, with “First, concentration value was converted to log value, followed by non-linear regression analyze which is log(inhibitor) vs. normalized response—Variable slope, was performed to calculate the IC50 values.” left out
# SNU-16 cells [2] = experiment: Cell viability assay (MTT); format: cell-based; settings: Homo sapiens; SNU-16, mean ± SD
# Procedure: as §3
# as §2, with “First, concentration value was converted to log value, followed by non-linear regression analyze which is log(inhibitor) vs. normalized response—Variable slope, was performed to calculate the IC50 values.” left out
# ROCK-II(r) = experiment: Kinase selectivity panel; format: biochemical, rat; settings: read-out: Inhibition(%) @ 1 µM RK-019
# Procedure: as §1
# CK1(y) = experiment: Kinase selectivity panel; format: biochemical, yeast; settings: read-out: Inhibition(%) @ 1 µM RK-019
# Procedure: as §1
# [3] = Preliminary toxicity in the xenograft mice model; format: in vivo, NOD/SCID mice
# Procedure: NOD/SCID mice (6-week-old, weight 18–20 g, Beijing HJF bioscience) were used in this experiment and maintained in a specific-pathogen-free (SPF) condition facility. SNU-16 Cells were resuspended in PBS mixed with Matrigel (1:1) and adjust the density to 1×10^7 per mice (100 μL). The cell suspensions were inoculated subcutaneously on the right flank of the mice. When the mean tumor volume reached approximately 200 mm^3, the mice were divided into four groups (five mice each group): i. Vehicle group, ii. RK-019 15 mg/kg group, iii. RK-019 30 mg/kg group, and iv. RK-019 45 mg/kg group. RK-019 was dissolved in same formula as the in vivo PK study. RK-019 was administrated once per day by oral gavage for 21 days. Tumor volumes were measured three times per week. The tumor volume was measured by a caliper and calculated according to the following formula: Tumor volume=Major axis×Miner axis^2/2.
# At the end of administration, the mice were executed euthanasia, then tumors, blood, and organs were extracted. The complete blood count (CBC), serum phosphorus analysis, and blood biochemical analysis were completed by West China Frontier Pharma Tech (Chengdu, China). The pathological section and IHC stanning was completed by Servicebio (Wuhan, China). The tumor growth inhibition (TGI) values were calculated with the following formula: TGI=(1−Tn−T0/Cn−C0)×100%.
# KATO III cells [4] = experiment: Apoptosis analysis by flow cytometry (Annexin V-PE/7-AAD); format: cell-based; settings: 72 h
# Procedure: (§4) Cell cycle and apoptosis assay were both measured by flow cytometry (FCM). The data were analyzed by the NovoExpress software (v1.4.0, Agilent, Santa Clara, CA, United States). For cell cycle assay, the cells were treated by different concentrations of RK-019 for 24 h, then were harvested and washed twice with cold phosphate buffered solution (PBS), followed by fixed with 75% ethanol overnight. Before test, the cells were washed twice with cold PBS and stained with PI stanning solution using cell cycle detecting kit (KGA512, KeyGEN, Nanjing, China), and then measured by FCM. […]
# SNU-16 cells [5] = experiment: as above; format: cell-based; settings: SNU-16, 72 h
# Procedure: as §4
compound,measurement,setting,value
"COc1cc(OC)cc(N(CCN[C@H](C)CO)c2ccc3ncc(-c4cnn(C)c4)c(=O)n3c2)c1 [RK-019, (R)-7-((3,5-dimethoxyphenyl) (2-((1-hydroxypropan-2-yl)amino)ethyl)amino)-3-(1-methyl-1H-pyrazol-4-yl)-4H-pyrido [1,2-a]pyrimidin-4-one]",IC50,FGFR1,8.9 nM and 9.1 nM
same,IC50,FGFR4,40.7 nM
same,IC50,FGFR3,26.3 nM
same,IC50,FGFR2,4.6 nM
same,IC50,KATO III cells [1],5.45 ± 5.3 nM
same,IC50,SNU-16 cells [2],3.96 ± 4.4 nM
same,activity,ROCK-II(r),91%
same,activity,CK1(y),94%
same,body weight change,"[3]; during 21 days treatment, 15-45 mg/kg oral",no significant body weight change
same,hematopoietic toxicity,[3]; end of 21 days treatment,absent
same,pathological changes in harvested organs (H&E),[3]; end of 21 days treatment,no pathological changes
same,population of apoptotic cells (early and late apoptotic cells),KATO III cells [4],32.7%
same,population of apoptotic cells (early and late apoptotic cells),SNU-16 cells [5],45.5%
